Laboratory results taken from patent publication US11613750B2, “Methods of reducing virus molecule levels” (priority 2019, dated 2023).

Legend:
[1] = tested on: RPLP2 mRNA; experiment: Target mRNA reduction by RT-qPCR in HepG2.2.15 cells; type: cell-based, human; conditions: 10 nM siRNA
Source text: The siRNAs identified as described in Example A6 should function by a mechanism that includes being loaded in the RISC complex to cleave the cognate mRNA, leading to the degradation of the mRNA. To examine whether the siRNAs are effective in reducing the target mRNA, we used reverse transcription coupled with quantitative polymerase chain reaction (RT-qPCR) to assess the level of the target mRNA in HepG2.2.15 cells. All 32 siRNAs described in Table 2 reduced the mRNA by more than 75% (Table 3).

[2] = tested on: HCoV-OC43; experiment: OC43 virion RNA, Branched DNA assay, infected HCT8 cells; type: cell-based, human coronavirus OC43; conditions: for OC43 vRNA reduction siRNA and siGRP78: 10 nM siRNA along with 10 nM of siRNA targeting GRP78, HCT8 cells; for OC43 vRNA reduction: 10 nM siRNA, HCT8 cells
Procedure: The siRNAs were transfected in the HCT8 cells at a final concentration of 10 nM. A positive control for the inhibition of Coronavirus infection, Remdesivir (Rem), was used at 0.9 μM. The virion RNAs (vRNAs) were quantified using a Branched DNA assay specific for OC43 RNA.
The two siRNAs are those referred to by compound number (see Table 2) in the horizontal bar, along with siRNA targeting GRP78, siGRP78. A positive control for the inhibition of Coronavirus infection, Remdesivir (Rem), was used at 0.9 μM. The vRNAs were quantified using a Branched DNA assay specific for OC43 RNA.
The siRNAs listed in Table 2 were transfected into human colon epithelial HCT8 cells and the amount of OC43 virion produced was quantified. In these assays, the OC43 vRNA was quantified using a Branched DNA assay (QuantiGene gene expression assay: ThermoFisher). As a positive inhibitory control, the infected cells were treated with Remdesivir. […] Examples of the inhibition of OC43 vRNA are illustrated in FIG. 5A.
A combination of siRNAs targeting the host factor should more robustly reduce OC43 virion production. To illustrate this, HCT8 cells were transfected with 10 nM of siRNAs from Table 2 along with 10 nM of siRNA targeting GRP78. The virion RNAs produced were quantified using the Branched DNA assay. […] A combination of siRNAs targeting host factors GRP78, SRSF1, RPLP1 and RPLP2 can lead to significant reduction in the production of human Coronavirus virion RNA from infected cells.

[3] = tested on: RPLP2 protein; experiment: Target protein reduction by Western blot in HepG2.2.15 cells; type: cell-based, human; conditions: 10 nM siRNA, 72 h
Procedure: The host factors likely function in viral infection as proteins. Therefore, we determined whether the siRNAs could decrease the amounts of the target protein. Cell transfected with 10 nM of each siRNA for 72 h were lysed and the target proteins identified using Western blots probed with target-specific antibodies. The effective siRNAs described in Table 3 reduced the levels of the proteins by between 28 and 92% of the mock-treated samples. The reduction in the proteins is less than the reduction of the target mRNA, likely due to the proteins have prolonged half-life and that more time is needed for their degradation. […] We reason that this is due to RPLP1 and RPLP2 functioning as heterodimers such that a decrease of one protein increases the vulnerability of the other protein to degradation. Similar concomitant decrease of the proteins was reported by Campos et al. (17). Finally, the levels of two cellular proteins that are not targeted by the siRNAs, P54nrb and GAPDH, were unaffected.

[4] = tested on: HepG2.2.15 cells; experiment: HepG2.2.15 cell viability, CellTiter-Glo; conditions: read-out: CC50, HepG2.2.15 cell viability; highest concentration tested 80 nM
Procedure: (§1) Cell viability was assessed by ATP levels determined using the CellTiter-Glo reagent and the results normalized to the level in mock-treated cells. HBsAg levels were quantified using ELISA and the data normalized to the level in the mock-treated cells.
The effects on cell viability were quantified using the CellTiter-Glo reagent. All data were normalized to the amount of protein produced by mock-treated cells.
(§2) The library of siRNAs of Example A5 were tested for the reduction of HBsAg secreted by HepG2.2.15 cells and in HBV virions.

[5] = tested on: HBsAg; conditions: read-out: EC50, Extracell. HBsAg reduction; HepG2.2.15 cells
Procedure: as §1
The cellular proteins GRP78/BIP, SRSF1, HNRNPA2B1, RPLP1, and RPLP2 were identified as having roles in HBV replication and infection. Various siRNAs and combinations thereof targeting the RNAs encoding these proteins were contacted with HepG2.2.15 cells at a final concentration of 7.5 nM.
The EC50 values of several siRNAs and combinations of siRNAs targeting HNRNPA2B1, GRP78, RPLP1, RPLP2, and/or SRSF1 were determined with respect to the ability to reduce HBsAg levels in HepG2.2.15 cells.
(§3) The ability of siRNAs targeting host factors that then results in the reduced production of multiple HBV molecules was evaluated by quantifying the amount of HBsAg, HBeAg, and Core protein produced by HepG2.2.15 cells after contacting with 10 nM of siRNAs that target HNRNPA2B1, GRP78, RPLP1, RPLP2, and SRSF1. We also contacted the cells with 5 nM of each set of siRNAs that targets both RPLP1 and RPLP2. The level of HBsAg, HBeAg, and Core were all determined using ELISAs.
as §2

[6] = tested on: HBeAg; conditions: 10 nM siRNA transfected into cells
Procedure: HBeAg in the cell culture media was assessed using ELISAs.
as §3, §2

Substance | Target RNA reduction in HepG2.2.15 cells [1] [%] | OC43 vRNA reduction siRNA and siGRP78 [2] [%] | Target protein reduction in HepG2.2.15 cells [3] [%] | CC50 [4] [pM] | EC50 [5] [pM] | HBeAg reduction HepG2.2.15 cells [6] [%] | OC43 vRNA reduction [2] [%]
49 (AAACAUUGAAGACGUCAUUTTAAUGACGUCUUCAAUGUUUTT; siRNA; Self-complementary hairpin strand, chemistry not given here, further chemistry not given here; listed as Homo sapiens) [compound 49] | 98 ± 1 | 91 ± 3 | 59 ± 4 | > 80000 | 26 | 32 ± 6 | 
45 (GGAAAAAACAUUGAAGACGUCUUGACGUCUUCAAUGUUUUUUCCUU; siRNA; Self-complementary hairpin strand, chemistry not given here, further chemistry not given here; listed as Homo sapiens) [compound 45] | 98 ± 1 | 89 ± 2 | 61 ± 7 | > 80000 | 13 | 42 ± 5 | 
43 (GUAUCGAGGCGGACGACGACCUUGGUCGUCGUCCGCCUCGAUACUU; siRNA; Self-complementary hairpin strand, chemistry not given here, further chemistry not given here; listed as Homo sapiens) [compound 43] | 94 ± 2 | 92 ± 2 | 45 ± 4 | > 80000 | 182 | 70 ± 5 | 94 ± 1
46 (GAAAGAUGAGAAGAAGGAGGAUUUCCUCCUUCUUCUCAUCUUUCUU; siRNA; Self-complementary hairpin strand, chemistry not given here, further chemistry not given here; listed as Homo sapiens) [compound 46] | 98 ± 1 | 87 ± 4 | 56 ± 8 | > 80000 | 1100 | 44 ± 5 | 
35 (GGGAUUUGGCCUUUUUGAUUATTAUCAAAAAGGCCAAAUCCCAUTT; siRNA; Self-complementary hairpin strand, chemistry not given here, further chemistry not given here; listed as Homo sapiens) [compound 35] | 98 ± 0 | 96 ± 1 | 78 ± 16 | > 80000 | 10 | 69 ± 3 | 94 ± 6
47 (UGGCCUUUUUGAUUAAAUUTTAAUUUAAUCAAAAAGGCCAAA; siRNA; Self-complementary hairpin strand, chemistry not given here, further chemistry not given here; listed as Homo sapiens) [compound 47] | 97 ± 3 | 89 ± 2 | 67 ± 5 | > 80000 | 70 | 38 ± 5 | 
52 (CAAGGUUAUCAGUGUGCUGTTCAGCACACUGAUAACCUUGTT; siRNA; Self-complementary hairpin strand, chemistry not given here, further chemistry not given here; listed as Homo sapiens) [compound 52] | 98 ± 1 | 91 ± 2 | 58 ± 1 | > 80000 | 60 | 54 ± 5 | 
39 (AGAGGAGAAGAAAGAUGAGAAUUUUCUCAUCUUUCUUCUCCUCUUU; siRNA; Self-complementary hairpin strand, chemistry not given here, further chemistry not given here; listed as Homo sapiens) [compound 39] | 96 ± 1 | 86 ± 6 | 48 ± 9 | > 80000 | 103 | 59 ± 4 | 91 ± 2
51 (GAAGAUCUUGGACAGCGUGTTCACGCUGUCCAAGAUCUUCTT; siRNA; Self-complementary hairpin strand, chemistry not given here, further chemistry not given here; listed as Homo sapiens) [compound 51] | 98 ± 0 | 90 ± 2 | 56 ± 5 | > 80000 | 100 | 32 ± 4 | 
50 (CGACCGGCUCAACAAGGUUTTAACCUUGUUGAGCCGGUCGTC; siRNA; Self-complementary hairpin strand, chemistry not given here, further chemistry not given here; listed as Homo sapiens) [compound 50] | 98 ± 1 | 91 ± 2 | 48 ± 2 | > 80000 | 95 | 42 ± 5 | 
38 (AGUGUACCUGCUGGUGGGGCUUUAGCCCCACCAGCAGGUACACUUU; siRNA; Self-complementary hairpin strand, chemistry not given here, further chemistry not given here; listed as Homo sapiens) [compound 38] | 96 ± 1 | 61 ± 14 | 55 ± 2 | > 80000 | 76 |  | 39 ± 6
